Assay results: patent US20100119483A1, “PEPTIDE VIRAL ENTRY INHIBITORS” (Schering Corporation, priority 2004, published 2010)
Several values for one entry are separate records, joined by “and”; a condition that tells them apart may be missing. Equal values may be shown once. Ends that are not written are not given here.

What was measured:
HCV pseudoparticles = test: HCV pseudoparticle (HCVpp) entry assay in Huh7 hepatoma cells, luciferase readout; type: cell-based, hepatitis C virus; settings: for HCVpp % inh: peptide library screen, first screened at 100 ug/ml, cell entry inhibition vs uninhibited control; for luciferase units, HCV entry: duplicates, listed as scrambled SEQ ID NO: 138
Procedure, shortened: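 Pseudoparticles carrying HCV E1/E2 on an HIV luciferase backbone were produced in 293T cells; peptide was pre-incubated 1 h at 37 °C with Huh7 cells, then virus added and luciferase read after 72 h. Dose-response used 10-point 3-fold titration from 100 ug/ml; envelope-less particles controlled non-specific entry.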

[1] = tested on: amphotropic murine leukemia virus; test: AMLV pseudotyped virus entry counter-screen, same infection protocol; type: cell-based; settings: for AMLVpp % inh: peptide library screen, cell entry inhibition vs uninhibited control; for luciferase units, AMLV entry: duplicates, listed as scrambled SEQ ID NO: 106
Procedure, shortened: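 Huh7 hepatoma cells pre-incubated with peptide 1 h at 37 °C, then infected with AMLV pseudotyped virus and cultured 72 h at 37 °C, 5% CO2 before luciferase read-out. Peptides screened at 100 ug/ml, then 10-point 3-fold titrations from 100 ug/ml.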

Substance | HCVpp % inh (HCV pseudoparticles) | AMLVpp % inh [1] | further results
L-E-D-R-D-R-S-E-L-S-P-L-L-L-S-T (LEDRDRSELSPLLLST; not fully specified (C-terminus); printed as L-E-D-R-D-R-S-E-L-S-P-L-L-L-S-T) [SEQ ID NO: 69] | −15% | 1% | 
L-F-S-P-G-S-S-Q-K-I-Q-L-V-N-T-N [SEQ ID NO: 33] | 61% | −49% | 
L-F-T-F-S-P-R-R-H-E-T-V-Q-D-C-N [SEQ ID NO: 17] | 9% | 16% | 
L-I-H-L-H-Q-N-V-V-D-V-Q-Y-L-Y-G [SEQ ID NO: 74] | 22% | 5% | 
L-L-L-A-D-A-R-V-C-A-C-L-W-M-M-L [SEQ ID NO: 79] | 77% | 16% | 
L-P-A-L-S-T-G-L-I-H-L-H-Q-N-V-V [SEQ ID NO: 73] | 19% | 0% | 
L-P-C-S-F-T-T-L-P-A-L-S-T-G-L-I (LPCSFTTLPALSTGLI; HCV peptide) [SEQ ID NO: 72] | −2% | 20% | 
L-V-V-S-Q-L-L-R-I-P-Q-A-V-V-D-M [SEQ ID NO: 23] | 3% | −1% | 
LKLFEVYLILWLA (HCV peptide) [SEQ ID NO: 138, scrambled 13-mer] |  |  | luciferase units, HCV entry (HCV pseudoparticles; 0.04115226 uM of peptide): 12287 luciferase units and 13159 luciferase units and 13838 luciferase units and 13589 luciferase units and 10645 luciferase units and 10230 luciferase units; luciferase units, HCV entry (HCV pseudoparticles; 0.1234568 uM of peptide): 9257 luciferase units and 8961 luciferase units and 11382 luciferase units and 10746 luciferase units and 7229 luciferase units and 6598 luciferase units; luciferase units, HCV entry (HCV pseudoparticles; 0.3703704 uM of peptide): 7620 luciferase units and 8597 luciferase units and 9180 luciferase units and 5716 luciferase units and 8494 luciferase units and 8291 luciferase units; luciferase units, HCV entry (HCV pseudoparticles; 1.111111 uM of peptide): 6456 luciferase units and 7681 luciferase units and 9683 luciferase units and 9482 luciferase units and 9053 luciferase units and 7359 luciferase units; luciferase units, HCV entry (HCV pseudoparticles; 3.333333 uM of peptide): 7729 luciferase units and 11535 luciferase units and 12632 luciferase units and 8653 luciferase units and 8028 luciferase units and 10288 luciferase units; luciferase units, HCV entry (HCV pseudoparticles; 30 uM of peptide): 7047 luciferase units and 5340 luciferase units and 7406 luciferase units and 5158 luciferase units and 5107 luciferase units and 5826 luciferase units; activity compared to the wild type 13-mer peptide (HCV pseudoparticles; HCVpp entry inhibition, in words): still showed some activity, though weakened; luciferase units, AMLV entry ([1]; 0.04115226 uM of peptide): 43854 luciferase units and 39721 luciferase units and 46556 luciferase units and 44480 luciferase units and 40734 luciferase units and 47413 luciferase units; luciferase units, AMLV entry ([1]; 0.1234568 uM of peptide): 39298 luciferase units and 28711 luciferase units and 46132 luciferase units and 49974 luciferase units and 42958 luciferase units and 51726 luciferase units; luciferase units, AMLV entry ([1]; 0.3703704 uM of peptide): 48158 luciferase units and 45212 luciferase units and 49139 luciferase units and 49219 luciferase units and 51358 luciferase units and 50551 luciferase units; luciferase units, AMLV entry ([1]; 1.111111 uM of peptide): 49084 luciferase units and 39443 luciferase units and 53349 luciferase units and 51341 luciferase units and 46069 luciferase units and 46019 luciferase units; luciferase units, AMLV entry ([1]; 3.333333 uM of peptide): 50674 luciferase units and 41738 luciferase units and 60859 luciferase units and 50020 luciferase units and 51236 luciferase units and 49388 luciferase units; luciferase units, AMLV entry ([1]; 30 uM of peptide): 87785 luciferase units and 60410 luciferase units and 83010 luciferase units and 77083 luciferase units and 85612 luciferase units and 79287 luciferase units
M-A-W-D-M-M-M-N-W-S-P-T-A-A-L-V (MAWDMMMNWSPTAALV; not fully specified (C-terminus); printed as M-A-W-D-M-M-M-N-W-S-P-T-A-A-L-V) [SEQ ID NO: 21] | 32% | 3% | 
N-D-S-L-N-T-G-F-L-A-A-L-F-Y-V-H [SEQ ID NO: 37] | 14% | 15% | 
N-I-G-G-I-G-N-K-T-L-T-C-P-T-D-C [SEQ ID NO: 57] | 39% | 20% | 
N-R-T-A-L-N-C-N-D-S-L-N-T-G-F-L (NRTALNCNDSLNTGFL; not fully specified (C-terminus); printed as N-R-T-A-L-N-C-N-D-S-L-N-T-G-F-L) [SEQ ID NO: 36] | 23% | 18% | 
N-S-S-R-C-W-V-A-L-T-P-T-L-A-A-R [SEQ ID NO: 9] | 5% | 28% | 
N-S-T-G-F-T-K-T-C-G-C-P-P-C-N-I [SEQ ID NO: 55] | 23% | 3% | 
N-T-L-G-I-T-S-L-F-S-P-G-S-S-Q-K [SEQ ID NO: 32] | 11% | 2% | 
N-W-A-K-V-L-I-V-M-L-L-F-A-G-V-D [SEQ ID NO: 28] | 13% | −1% | 
N-W-S-P-T-A-A-L-V-V-S-Q-L-L-R-I [SEQ ID NO: 22] | 54% | −11% | 
P-C-G-I-V-P-A-A-Q-V-C-G-P-V-Y-C [SEQ ID NO: 46] | 29% | −2% | 
P-C-T-V-N-F-T-I-F-K-V-R-M-Y-V-G (PCTVNFTIFKVRMYVG; HCV peptide) [SEQ ID NO: 64] | −2% | −30% | 
P-R-C-L-V-H-Y-P-Y-R-L-W-H-Y-P-C (PRCLVHYPYRLWHYPC; HCV peptide) [SEQ ID NO: 62] | 10% | −42% | 
P-Y-R-L-W-H-Y-P-C-T-V-N-F-T-I-F (PYRLWHYPCTVNFTIF; HCV peptide) [SEQ ID NO: 63] | 44% | 3% | 
Q-K-I-Q-L-V-N-T-N-G-S-W-H-I-N-R (QKIQLVNTNGSWHINR; HCV peptide) [SEQ ID NO: 34] | 6% | 13% | 
R-F-G-V-P-T-Y-S-W-G-E-N-E-T-D-V [SEQ ID NO: 50] | 34% | 33% | 

Substance | HCVpp % inh (HCV pseudoparticles) | AMLVpp % inh [1] | further results
R-H-E-T-V-Q-D-C-N-C-S-I-Y-P-G-H [SEQ ID NO: 18] | 5% | 17% | 
R-I-P-Q-A-V-V-D-M-V-A-G-A-H-W-G [SEQ ID NO: 24] | 25% | −2% | 
S-C-S-P-I-D-A-F-A-Q-G-W-G-P-I-T [SEQ ID NO: 41] | −11% | 25% | 
S-S-D-Q-R-P-Y-C-W-H-Y-A-P-R-P-C [SEQ ID NO: 44] | 14% | 15% | 
S-T-T-E-W-Q-V-L-P-C-S-F-T-T-L-P [SEQ ID NO: 71] | 44% | 18% | 
S-V-F-L-V-A-Q-L-F-T-F-S-P-R-R-H [SEQ ID NO: 16] | 3% | −148% | 
S-W-G-E-N-E-T-D-V-L-L-L-N-N-T-R [SEQ ID NO: 51] | 23% | 34% | 
T-C-G-G-P-P-C-N-I-G-G-I-C-N-K-T [SEQ ID NO: 56] | 53% | 22% | 
T-G-G-T-N-A-K-N-T-L-G-I-T-S-L-F [SEQ ID NO: 31] | 41% | −2% | 
T-N-G-S-W-H-I-N-R-T-A-L-N-C-N-D (TNGSWHINRTALNCND; HCV peptide) [SEQ ID NO: 35] | 29% | 30% | 
T-R-G-E-R-C-N-L-E-D-R-D-R-S-E-L [SEQ ID NO: 68] | 13% | −7% | 
T-R-P-P-Q-G-N-W-F-G-C-T-W-M-N-S [SEQ ID NO: 53] | 59% | −42% | 
T-T-T-I-R-R-H-V-D-L-L-V-G-A-A-A [SEQ ID NO: 12] | 31% | −5% | 
V-C-A-C-L-W-M-M-L-L-I-A-Q-A-E-A [SEQ ID NO: 80] | 16% | 7% | 
V-D-G-G-T-Y-V-T-G-G-T-M-A-K-N-T [SEQ ID NO: 30] | 2% | −9% | 
V-D-L-L-V-G-A-A-A-L-C-S-A-M-Y-V [SEQ ID NO: 13] | 39% | −13% | 
V-G-G-V-E-H-R-L-E-A-A-C-N-W-T-R (VGGVEHRLEAACNWTR; HCV peptide) [SEQ ID NO: 66] | 22% | 34% | 
V-H-K-F-N-S-S-G-C-P-E-R-M-A-S-C [SEQ ID NO: 39] | −11% | −15% | 
V-M-L-L-F-A-G-V-D-G-G-T-Y-V-T-G [SEQ ID NO: 29] | −22% | 11% | 
V-P-C-V-R-E-N-N-S-S-R-C-W-V-A-L [SEQ ID NO: 8] | −22% | 14% | 
V-V-D-V-Q-Y-L-Y-G-I-G-S-A-V-V-S [SEQ ID NO: 75] | 39% | 44% | 
V-V-V-G-T-T-D-R-F-G-V-P-T-Y-S-W [SEQ ID NO: 49] | 37% | −22% | 
V-Y-E-A-A-D-M-I-M-H-T-P-G-C-V-P [SEQ ID NO: 6] | −13% | 10% | 
